These results are taken from PubChem BioAssay (NCI).

SMILES strings stand for the structures.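 Dose response: 5 concentrations. Exposure: 48 h. Format: 96-well plates. Endpoint: linear interpolation; highest concentration if not reached. The concentration for full growth arrest is given as TGI.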 Some results are limits rather than exact numbers.

What all share (experiment): NCI anticancer screen, dose series, 48 h
Assay [1] relates to MALME-3M melanoma.
The subject of assay [2] is SF-539 CNS.
The test system of assay [3] is SNB-19 CNS.
The subject of assay [4] is SK-MEL-2 melanoma.
Assay [5] has as its system SK-MEL-5 melanoma.
The test system of assay [6] is KM12 colon.
For assay [7], the system named is HOP-62 NSCLC.
In assay [8] the test system is UO-31 renal.
Assay [9] concerns HOP-92 NSCLC.
For assay [10], the system named is RXF 393 renal.
Assay [11] has as its system EKVX NSCLC.
Assay [12] deals with OVCAR-8 ovarian.
Assay [13] has as its system MOLT-4 leukemia.
Assay [14] concerns HCT-116 colon.
Assay [15] deals with HT29 colon.
Assay [16] deals with NCI-H522 lung.
The test system of assay [17] is SF-268 CNS.
Assay [18] has as its system NCI-H23 lung.
Assay [19] concerns OVCAR-5 ovarian.
The subject of assay [20] is ACHN renal.

For the molecule `Cc1ccc(N2Cc3c(ccc4ccccc34)OP2(=O)Oc2ccc(Cl)c(C)c2)cc1` (stereo not given), the TGI in assay [1], in [2], in assay [3], in assay [4], in assay [5] and in [6] was greater than 100 µM in each case. The TGI in assay [7], in assay [8], in assay [9], in assay [10], in assay [11] and in assay [12] was greater than 100 µM in each case. Further, the TGI in assay [13], in assay [14], in [15], in assay [16], in [17] and in assay [18] was greater than 100 µM throughout. Moreover, in assay [19], the TGI was greater than 100 µM.

On to `CC(C)OP(=O)(OC(C)C)/C(I)=N/Nc1ccc([N+](=O)[O-])cc1`, for which the TGI in [20], in [1], in [2], in [3], in assay [4] and in [5] was greater than 100 µM each time. Moreover, the TGI in assay [6], in assay [7], in assay [8], in [9], in [11] and in assay [12] was greater than 100 µM each time. Further, the TGI in [13], in [14], in assay [15], in assay [16], in assay [17] and in [18] was greater than 100 µM throughout. Further, the TGI in assay [19] is greater than 100 µM.

In the case of `O=S(=O)(CCBr)CCBr`, the TGI is 9.2 µM in assay [1]; 18.6 µM in assay [2]; 35 µM in [3]; 26 µM in [4]; 19.8 µM in [5]; 30 µM in [6]. In addition, the TGI in assay [7] was 43.1 µM; in assay [8], greater than 100 µM; in [9], 20.9 µM; in [10], 5.88 µM; in [12], 5.68 µM; in [13], 7.75 µM. Moreover, the TGI in assay [14] came to 10.5 µM; in [15] it was 20.3 µM; in assay [16], 3.11 µM; in assay [17], 16.1 µM; in assay [18] it was 18.7 µM; in assay [19], 26.7 µM.

Take `COc1ccc(-n2cnnc2-c2nsc3ccccc23)cc1`: the TGI in assay [20], in assay [2], in assay [3], in [4], in assay [5] and in assay [6] was greater than 100 µM throughout. The TGI is greater than 100 µM in assay [7]; greater than 100 µM in assay [8]; greater than 100 µM in [9]; 65.8 µM in [10]; greater than 100 µM in assay [11]; greater than 100 µM in assay [12]. Moreover, the TGI in [13], in [14], in [15], in [17], in assay [18] and in assay [19] was greater than 100 µM each time.

Take `CCOP(=O)(OCC)/C(C#N)=C/c1cn(C)cn1`: the TGI in [20], in assay [1], in [2], in assay [3], in assay [4] and in [6] was greater than 100 µM throughout. Also, the TGI in assay [7], in assay [8], in [9], in assay [10], in assay [11] and in assay [12] was greater than 100 µM each time. For the same molecule, the TGI in [15], in assay [16], in assay [17], in assay [18] and in assay [19] was greater than 100 µM each time.

Turning to `Nc1nc(SCc2ccc([N+](=O)[O-])cc2)nc2c1ncn2C1OC(COP(=O)(O)O)C(O)C1O` (stereo not given), the TGI in [20], in assay [1], in assay [2], in [3], in assay [4] and in assay [5] was greater than 100 µM throughout. The TGI in [6], in assay [7], in [9], in assay [10], in [11] and in assay [12] was greater than 100 µM throughout. Besides, the TGI in [13], in assay [14], in [15], in assay [16], in assay [17] and in assay [18] was greater than 100 µM throughout. In assay [19], this molecule showed a TGI greater than 100 µM.

For `Cc1ccc(N=N/C(=N\NC(=O)c2ccc(C)cc2)c2ccc(N(CCC#N)CCC#N)cc2C)cc1`, the TGI in assay [20] is greater than 100 µM; in assay [2], 45.1 µM; in assay [3], greater than 100 µM; in assay [4], 51.6 µM; in assay [5] it was greater than 100 µM; in assay [6], 30.3 µM. Moreover, the TGI in assay [7], in [8], in [9], in assay [10], in [11] and in assay [12] was greater than 100 µM throughout. The TGI in assay [13], in assay [15], in [17], in [18] and in assay [19] was greater than 100 µM in each case.

Consider `CC(NC(=O)C(C)NC(=O)C(N)CCP(C)(=O)O)C(=O)O` (stereo not given), for which the TGI in [1], in assay [2], in assay [3], in [4], in assay [5] and in [6] was greater than 100 µM each time. Also, the TGI in [7], in assay [8], in assay [9], in assay [10], in [11] and in [12] was greater than 100 µM each time. Moreover, the TGI in [13], in assay [14], in assay [15], in assay [16], in [17] and in assay [18] was greater than 100 µM each time. Besides, the TGI in assay [19] was greater than 100 µM.

Turning to `CC1=Nc2nc(Cl)cn2C(=O)C1(Cl)Cl`, the TGI in assay [20], in assay [1], in assay [2], in assay [3], in assay [4] and in [5] was greater than 10 µM in each case. The TGI in [6], in assay [7], in [8], in assay [10], in assay [11] and in [12] was greater than 10 µM throughout. Also, the TGI in [13], in assay [14], in [15], in assay [16], in assay [17] and in assay [18] was greater than 10 µM in each case. The molecule further came in with a TGI in assay [19] greater than 10 µM.
